From PubChem BioAssay AID1259411 (Chemical Carcinogenesis Research Information System (CCRIS), 2018)
Activity calls are given as the source filed them. No rule for the calls is given here.

System: rodent carcinogenicity bioassays, tumor incidence
Experiment: CCRIS carcinogenicity studies
Settings: Dose: 0
Outline: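 NCI-built, expert-reviewed records of carcinogenicity and related test outcomes (mutagenicity, tumor promotion/inhibition) compiled from published and report sources, historical span 1985-2011, not updated.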

Structure (SMILES): Nc1cc2c3c(ccc2c2ccccc12)[C@H](O)[C@@H](O)C=C3
- carcinogen call (Species: MOUSE, Strain/Sex: SWISS/FEMALE, Route: INTRAPERITONEAL, 100 NMOL (TOTAL DOSE) 1/7, 2/7 AND 4/7 ADMINISTERED ON DAYS 1, 8 AND 15 OF LIFE RESPECTIVELY (STUDY DURATION: 32 WK), Tumor Site: Type of Lesion: LUNG: TUMOR): active; positive
- carcinogen call (Species: MOUSE, Strain/Sex: SWISS/MALE, Route: INTRAPERITONEAL, 100 NMOL (TOTAL DOSE) 1/7, 2/7 AND 4/7 ADMINISTERED ON DAYS 1, 8 AND 15 OF LIFE RESPECTIVELY (STUDY DURATION: 32 WK), Tumor Site: Type of Lesion: LUNG: TUMOR, LIVER: TUMOR): active; positive

Structure (SMILES): COc1cc(OC)nc(NC(=O)NS(=O)(=O)c2cc(NC=O)ccc2C(=O)N(C)C)n1
- carcinogen call (Species: Mouse, Strain/Sex: Crl:CD-1(ICR)BR/Female (51/Group), Route: Oral, 40, 800, 8000 ppm of 94.6% foramsulfuron in diet for 80 wk, study duration 80 wk, 40, 800, 8000 ppm of 94.6% foramsulfuron in diet for 80 wk, study duration 80 wk): inactive; negative
- carcinogen call (Species: Mouse, Strain/Sex: Crl:CD-1(ICR)BR/Male (51/Group), Route: Oral, 40, 800, 8000 ppm of 94.6% foramsulfuron in diet for 80 wk, study duration 80 wk, 40, 800, 8000 ppm of 94.6% foramsulfuron in diet for 80 wk, study duration 80 wk): inactive; negative
- carcinogen call (Species: Rat, Strain/Sex: Sprague Dawley CRL:CD (IGS) BR/Female (50/Group), Route: Oral, 100, 600, 6000, 20,000 ppm of 94.6% foramsulfuron in diet for 104 wk, study duration 104 wk, 100, 600, 6000, 20,000 ppm of 94.6% foramsulfuron in diet for 104 wk, study duration 104 wk): inactive; negative
- carcinogen call (Species: Rat, Strain/Sex: Sprague Dawley CRL:CD (IGS) BR/Male (50/Group), Route: Oral, 100, 600, 6000, 20,000 ppm of 94.6% foramsulfuron in diet for 104 wk, study duration 104 wk, 100, 600, 6000, 20,000 ppm of 94.6% foramsulfuron in diet for 104 wk, study duration 104 wk): inactive; negative

Structure (SMILES): CCN(CC)c1ccc2c(-c3ccccc3C(=O)O)c3ccc(=[N+](CC)CC)cc-3oc2c1
- carcinogen call (Species: MOUSE, Strain/Sex: ICR/FEMALE, Route: DERMAL, 1 MG IN 0.1 ML DISTILLED WATER 2/WK FOR A MEAN TOTAL DOSE OF 121.4 MG (STUDY DURATION: 18 MO)): inactive; negative
- carcinogen call (Species: MOUSE, Strain/Sex: ICR/MALE, Route: DERMAL, 1 MG IN 0.1 ML DISTILLED WATER 2/WK FOR A MEAN TOTAL DOSE OF 121.4 MG (STUDY DURATION: 18 MO)): inactive; negative

Structure (SMILES): CC(=O)N(O)c1ccc(/C=C/c2ccccc2)cc1
- carcinogen call (Species: RAT, Strain/Sex: STRAIN-CD/FEMALE, Route: INTRAPERITONEAL, 10 UMOL/KG BW 2/WK FOR 6 WK (STUDY DURATION: 62 WK), Tumor Site: Type of Lesion: LIVER: NEOPLASTIC NODULE, MAMMARY GLAND: TUMOR, EAR DUCT: TUMOR, PITUITARY GLAND: CARCINOMA, Tumor Site: Type of Lesion: LIVER: NEOPLASTIC NODULE, MAMMARY GLAND: TUMOR, EAR DUCT: TUMOR, PITUITARY GLAND: CARCINOMA): active; positive
- carcinogen call (Species: RAT, Strain/Sex: STRAIN-CD/MALE, Route: INTRAPERITONEAL, 10 UMOL/KG BW 2/WK FOR 6 WK (STUDY DURATION: 62 WK), Tumor Site: Type of Lesion: TESTICLE: MESOTHELIOMA, PANCREAS(ACINUS): ADENOMA, EAR DUCT: CARCINOMA, Tumor Site: Type of Lesion: TESTICLE: MESOTHELIOMA, PANCREAS(ACINUS): ADENOMA, EAR DUCT: CARCINOMA): active; positive

Structure (SMILES): O=C1OC2(c3ccccc31)c1cc(Br)c(O)c(Br)c1Oc1c2cc(Br)c(O)c1Br
- carcinogen call (Species: MOUSE, Strain/Sex: ICR/FEMALE, Route: DERMAL, 1 MG IN 0.1 ML DISTILLED WATER 2/WK FOR A MEAN TOTAL DOSE OF 140.1 MG (STUDY DURATION: 18 MO)): inactive; negative
- carcinogen call (Species: MOUSE, Strain/Sex: ICR/MALE, Route: DERMAL, 1 MG IN 0.1 ML DISTILLED WATER 2/WK FOR A MEAN TOTAL DOSE OF 140.1 MG (STUDY DURATION: 18 MO)): inactive; negative

Structure (SMILES): O=Nc1ccc(Nc2ccccc2)cc1
- carcinogen call (Species: MOUSE, Strain/Sex: B6C3F1/FEMALE, Route: ORAL, 4254, 9000 PPM IN DIET, TWA, 4254, 9000 PPM IN DIET, TWA): inactive; negative
- carcinogen call (Species: MOUSE, Strain/Sex: B6C3F1/MALE, Route: ORAL, 4254, 9000 PPM IN DIET, TWA, 4254, 9000 PPM IN DIET, TWA, Tumor Site: Type of Lesion: LIVER: HEPATOCELLULAR ADENOMA OR CARCINOMA): active; positive
- carcinogen call (Species: RAT, Strain/Sex: F344/FEMALE, Route: ORAL, 2500, 5000 PPM IN DIET, 2500, 5000 PPM IN DIET): inactive; negative
- carcinogen call (Species: RAT, Strain/Sex: F344/MALE, Route: ORAL, 2500, 5000 PPM IN DIET, 2500, 5000 PPM IN DIET, Tumor Site: Type of Lesion: LIVER: HEPATOCELLULAR CARCINOMA OR NEOPLASTIC NODULE): active; positive

Structure (SMILES): c1ccc(Nc2ccc3ccccc3c2)cc1
- carcinogen call (Species: MOUSE, Strain/Sex: B6C3F1/FEMALE, Route: ORAL, 2500, 5000 PPM IN DIET FOR 103 WK (STUDY DURATION: 104 WK), 2500, 5000 PPM IN DIET FOR 103 WK (STUDY DURATION: 104 WK), Tumor Site: Type of Lesion: KIDNEY: RENAL TUBULAR CELL ADENOMA, RENAL TUBULAR CELL ADENOCARCINOMA): equivocal
- carcinogen call (Species: MOUSE, Strain/Sex: B6C3F1/MALE, Route: ORAL, 2500, 5000 PPM IN DIET FOR 103 WK (STUDY DURATION: 104 WK), 2500, 5000 PPM IN DIET FOR 103 WK (STUDY DURATION: 104 WK)): inactive; negative
- carcinogen call (Species: RAT, Strain/Sex: F344/FEMALE, Route: ORAL, 2500, 5000 PPM IN DIET FOR 103 WK (STUDY DURATION: 104 WK), 2500, 5000 PPM IN DIET FOR 103 WK (STUDY DURATION: 104 WK)): inactive; negative
- carcinogen call (Species: RAT, Strain/Sex: F344/MALE, Route: ORAL, 2500, 5000 PPM IN DIET FOR 103 WK (STUDY DURATION: 104 WK), 2500, 5000 PPM IN DIET FOR 103 WK (STUDY DURATION: 104 WK)): inactive; negative
- carcinogen call (Species: RAT, Strain/Sex: SPRAGUE-DAWLEY/FEMALE, Route: GAVAGE, 600 MG/KG BW 2/WK FOR DURATION OF STUDY (STUDY DURATION: LIFETIME)): inactive; negative
- carcinogen call (Species: RAT, Strain/Sex: SPRAGUE-DAWLEY/MALE, Route: GAVAGE, 600 MG/KG BW 2/WK FOR DURATION OF STUDY (STUDY DURATION: LIFETIME)): inactive; negative

Structure (SMILES): CC1=CC(C)(C)N(N=O)c2ccccc21
- carcinogen call (Species: RAT, Strain/Sex: CB/MALE, Route: INTRAPERITONEAL, 25 MG IN POLYETHYLENE GLYCOL 400 1/WK FOR 6 MO FOR A TOTAL DOSE OF 0, 650 MG (STUDY DURATION: 24 MO), 25 MG IN POLYETHYLENE GLYCOL 400 1/WK FOR 6 MO FOR A TOTAL DOSE OF 0, 650 MG (STUDY DURATION: 24 MO), Tumor Site: Type of Lesion: PERITONEUM: SARCOMA): active; positive

Structure (SMILES): Cc1noc(NS(=O)(=O)c2ccc(N)cc2)c1C
- carcinogen call (Species: MOUSE, Strain/Sex: B6C3F1/FEMALE, Route: GAVAGE, 500, 2000 MG/KG IN 0.5% AQ CMC, 500, 2000 MG/KG IN 0.5% AQ CMC): inactive; negative
- carcinogen call (Species: MOUSE, Strain/Sex: B6C3F1/MALE, Route: GAVAGE, 500, 2000 MG/KG IN 0.5% AQ CMC, 500, 2000 MG/KG IN 0.5% AQ CMC): inactive; negative
- carcinogen call (Species: RAT, Strain/Sex: F344/FEMALE, Route: GAVAGE, 100, 400 MG/KG IN 0.5% AQ CMC, 100, 400 MG/KG IN 0.5% AQ CMC): inactive; negative
- carcinogen call (Species: RAT, Strain/Sex: F344/MALE, Route: GAVAGE, 100, 400 MG/KG IN 0.5% AQ CMC, 100, 400 MG/KG IN 0.5% AQ CMC): inactive; negative

Structure (SMILES): O[C@@H]1[C@H]2O[C@H]2c2c(ccc3cc4ccc5ccccc5c4nc23)[C@H]1O
- carcinogen call (Species: MOUSE, Strain/Sex: CD-1/FEMALE, Route: INTRAPERITONEAL, 175 NMOL (TOTAL DOSE) ADMINISTERED AS 1/7 OF DOSE WITHIN 24 HR AFTER BIRTH, 2/7 OF DOSE AT 8 D OLD, 4/7 OF DOSE AT 15, Tumor Site: Type of Lesion: LIVER: TUMOR, LUNG: TUMOR): active; positive
- carcinogen call (Species: MOUSE, Strain/Sex: CD-1/MALE, Route: INTRAPERITONEAL, 175 NMOL (TOTAL DOSE) ADMINISTERED AS 1/7 OF DOSE WITHIN 24 HR AFTER BIRTH, 2/7 OF DOSE AT 8 D OLD, 4/7 OF DOSE AT 15, Tumor Site: Type of Lesion: LIVER: TUMOR, LUNG: TUMOR): active; positive
